The numbers were not newly measured in patent publication US20220040100A1, “Stable Acyclovir Sodium Parenteral Formulation” (RK Pharma Solutions LLC, priority 2020, published 2022), which cites them from elsewhere.

The conditions of this data set: lyophilized powder reconstituted with Sterile Water for Injection, 50 mg/mL of acyclovir.

Counter-ions that a name gives are not always drawn.

For the molecule `Nc1nc2c(ncn2COCCO)c(=O)[nH]1` [Acyclovir sodium, 2-amino-1,9-dihydro-9-[(2-hydroxyethoxy)methyl]-6H-purin-6-one monosodium salt], the “pH of the reconstituted solution” value was “approximately 11”.
